Results from paper PMC4122966, “Novel VCP modulators mitigate major pathologies of rd10, a mouse model of retinitis pigmentosa” (Scientific Reports, 2014).
Values joined by “and” are separate entries in the source; they are usually repeats but may differ in a detail not shown here. Identical values can stand only once.

Columns and labels:
recombinant VCP = recombinant VCP (Homo sapiens, UniProt P55072); assay: ATPase activity of recombinant VCP in vitro (modified molybdate assay, [γ-32P]ATP); assay type: biochemical
Chain of recombinant VCP (P55072 whole entry, species assumed): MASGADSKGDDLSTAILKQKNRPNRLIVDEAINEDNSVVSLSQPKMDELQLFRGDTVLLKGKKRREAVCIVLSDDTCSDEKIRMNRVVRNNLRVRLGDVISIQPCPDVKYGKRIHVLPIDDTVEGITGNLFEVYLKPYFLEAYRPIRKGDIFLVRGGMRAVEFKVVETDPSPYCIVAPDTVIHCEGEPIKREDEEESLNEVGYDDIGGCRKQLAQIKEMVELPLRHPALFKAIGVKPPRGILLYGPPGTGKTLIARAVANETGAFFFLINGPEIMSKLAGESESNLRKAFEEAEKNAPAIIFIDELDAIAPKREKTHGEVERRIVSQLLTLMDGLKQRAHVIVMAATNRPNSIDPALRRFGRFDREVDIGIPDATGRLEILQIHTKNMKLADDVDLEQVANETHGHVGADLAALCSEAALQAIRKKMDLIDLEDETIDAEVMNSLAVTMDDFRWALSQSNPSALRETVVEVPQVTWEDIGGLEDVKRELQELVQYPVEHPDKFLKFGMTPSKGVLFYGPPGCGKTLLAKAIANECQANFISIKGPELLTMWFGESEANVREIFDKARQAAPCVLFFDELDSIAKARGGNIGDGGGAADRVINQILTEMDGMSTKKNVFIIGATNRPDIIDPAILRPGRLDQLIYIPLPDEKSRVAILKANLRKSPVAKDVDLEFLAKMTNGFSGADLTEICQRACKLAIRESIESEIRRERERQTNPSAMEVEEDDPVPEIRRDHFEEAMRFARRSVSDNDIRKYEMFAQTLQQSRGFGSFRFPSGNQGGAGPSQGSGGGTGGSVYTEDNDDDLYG
Method: (§1) We measured ATPase activities by modifying the molybdate assay, which was as described previously. In the assay, 1 μg of whole cell soluble lysate of neuronally differentiated PC12 cells, or 500 ng recombinant VCP protein, was incubated in 20 μl of the ATPase assay buffer (20 mM HEPES (pH 7.4), 50 mM KCl, 5 mM MgCl2) with 100 μM [γ-^32P]ATP (18.5 GBq/mmol) (PerkinElmer) at 37°C for 20 min. After incubation, the reaction was quenched by addition of 200 μl of 8% ice-cold trichloroacetic acid solution with 1 mM K2HPO4, and then 50 μl of solution A (3.75% ammonium molybdate, 0.02 M silicotungstic acid in 3 N H2SO4) and 300 μl of n-butyl acetate were added to the reaction. The samples were mixed well and centrifuged at 12,000 × g for 1 min. Then, 200 μl aliquots from the upper organic phases were taken and their radioactivity was determined with a liquid scintillation counter for β-radiation, which determined the amounts of ^32P released.

[1] = test system: whole cell soluble lysate of neuronally differentiated PC12 cells; assay: total ATPase activity in clarified whole cell lysates; assay type: biochemical
Method: Figure 3 Effects of KUSs on ATPase activities, ATP levels, and acetyl-CoA levels. (a) Inhibition of ATPase activity in clarified whole cell lysates by KUS121, KUS187, and KUS94, but not KUS11. Total ATPase activities in clarified whole cell lysates from differentiated PC12 cells were measured in the absence and presence of KUSs. Relative ATPase activities are shown with values in the absence of KUS (D: DMSO) set at 100%. (b) HeLa cells were cultured in medium with low glucose (0.25 g/l) for 20 hours, with or without KUSs, and ATP levels were measured with luciferase assays. (c) HeLa cells were cultured in medium with low glucose (0.25 g/l) for 20 hours, with or without KUSs, and acetyl-CoA levels were measured. * P < 0.05, ** P < 0.01, *** P < 0.001 vs. DMSO control (Dunnett's test, n = 3).
as §1

HeLa cells [2] = assay: relative ATP amounts per cell in tunicamycin-treated cells; assay type: cell-based; conditions: Tm 0.5 μg/ml, 24 hours, KUSs 50 μM
Method: (§2) Figure 4 KUSs and ATP each prevented a decrease of ATP levels and ameliorated ER stress in tunicamycin-treated cells. (a) Immunocytochemical analyses of HeLa cells by an anti-laminin γ1 antibody. HeLa cells were treated with 0.5 μg/ml of tunicamycin (Tm) for 5 hours in the presence of KUSs (50 μM), ATP (0.1, 0.3, and 1 mM), methylpyruvate (MePyr) (3 and 10 mM), or vehicle alone (DMSO). Then, cells were fixed and subjected to immunocytochemical analyses. Normally growing HeLa cells were also analyzed (Control). Scale bar, 10 μm. (b) Measurements of the relative amounts of ATP per cell. HeLa cells were treated with tunicamycin (Tm, 0.5 μg/ml) for 24 hours in the presence of KUSs (50 μM) or ATP (0.1 and 1 mM), or vehicle alone (DMSO), and were harvested. Then, ATP amounts from 1.5 × 10^5 cells were measured. * P < 0.05, ** P < 0.01. Error bars indicate SD. (c) Western blot analyses on CHOP. HeLa cells were treated with 0.5 μg/ml of tunicamycin for 5 hours in the presence of KUSs (50 μM), ATP (0.1, 0.3, and 1 mM), methylpyruvate (MePyr) (3 and 10 mM), or vehicle alone (-). Then, cells were harvested and subjected to western blot analyses. Actin served as a loading control. Complete scans of the different blots are presented in Supplementary Fig. 9.

HeLa cells [3] = assay: cell death-inducing activity; assay type: cell-based; conditions: 50 μM, 24 hours
From the text: (§3) Figure 1 Structures and characterization of KUSs, novel VCP modulators. (a) Structures and IC50 values of KUS11, KUS31, KUS69, KUS94, KUS121, and KUS187. […] (b) ATPase activity assays of recombinant human […], comparing KUSs and DBeQ. (c) Immunoblot analysis of ubiquitinated proteins, an ER stress marker (CHOP), and an autophagy indicator (LC3), comparing KUSs and DBeQ. As a control, MG132, a proteasome inhibitor, was used for the analysis. Actin served as a loading control. Complete scans of the different blots are presented in Supplementary Fig. 7. (d) Comparison of KUSs and DBeQ for cell death-inducing activities. HeLa cells were treated with 50 μM DBeQ or KUSs for 24 hours. […]

cellular VCP functions = assay: immunoblot of ubiquitinated proteins, CHOP (ER stress) and LC3 (autophagy) in cultured cells; assay type: cell-based
From the text: as §3

[4] = test system: essentially all tested cultured cells; assay: cellular toxicity on cultured cells; assay type: cell-based; conditions: up to 50 μM
HeLa cells [5] = assay: immunocytochemistry of laminin γ1 aggregation in tunicamycin-treated cells; assay type: cell-based; conditions: HeLa, Tm 0.5 μg/ml, 5 hours
Method: as §2

rd10 mice = assay: rd10 mouse model of retinitis pigmentosa (SD-OCT, electroretinogram, histology, electron microscopy, western blot); assay type: in vivo; conditions: 21-day-old
Method: Starting 7 days after birth, KUS121 or KUS187 was administered daily (50 mg/kg) by intraperitoneal injection. […] To test the visual function of the mice, dark-adapted electroretinograms were recorded. The amplitude of the a-wave, which represents visual function of photoreceptors, was smaller in the control mice than in the KUS-treated mice (Supplementary Fig. 5b and c). The peak latency of the a-wave, which negatively correlates with visual function of photoreceptors, was delayed in the control mice as compared with the KUS-treated mice (Supplementary Fig. 5d). At age 25 days, the thinning of the outer nuclear layer (ONL) was clearly observed in the control mice (Fig. 5a). The outer nuclear layer and the junction line between the inner segment and outer segment (arrow heads in Fig. 5a), which is generally considered to be positively associated with visual function, were clearly detected in the KUS-treated but not in control mice. […] At age 29 days, the photoreceptor layer was barely detected in SD-OCT images, and electroretinogram records were almost flat in control mice. […]
Spectral-domain optical coherence tomography (SD-OCT) examinations using Multiline OCT (Heidelberg Engineering, Heidelberg, Germany) were performed[33] in rd10 mice at ages of 21, 25, 29, and 33days. Total retinal thickness (from inner limiting membrane to Bruch membrane) in rd10 mice was measured using volume scan images[33] within a circle 0.366 mm in diameter, the center of which was adjusted to the center of the optic nerve head. […]
Electroretinogram recording was performed to assess the visual function of rd10 mice at ages of 21, 25, 29, and 33 days. […] Electroretinograms were recorded using a gold loop corneal electrode with a light-emitting diode (Mayo Corp., Inazawa, Japan). […] The electroretinogram response signals were amplified, digitized at 10 kHz with a band-pass filter of 0.3 to 500 Hz, and analyzed (PowerLab 2/25; AD instruments, New South Wales, Australia). […]

[6] = test system: tunicamycin-treated HeLa cells; assay: western blot of ER stress markers and phospho-Akt in tunicamycin-treated cells; assay type: cell-based; conditions: Tm 0.5 μg/ml, 5 hours, 3 to 10 mM methylpyruvate
Method: Figure 2 Prevention of cell death and ER stress by KUSs. (a) Photographs of HeLa cells, cultured with DMSO (DMSO) or KUSs (KUS94, KUS121, and KUS187, 20 μM each) for 41 hours in low glucose (0.2 g/l) medium. Scale bar, 100 μm. (b–e) WST (water-soluble tetrazolium salts) values reflecting relative live cell numbers are shown, as optical density (OD) at 450 nm. Error bars indicate SD. (b) WST values of HeLa cells, cultured in low glucose (0.2 g/l) with DMSO (control) or KUSs (50 μM for KUS121; 20 μM for KUS69, KUS94, and KUS187, n = 3) for 41 hours. (c) Cell viability, indicated by WST values of HeLa cells, cultured with tunicamycin (Tm) (0.2 μg/ml) for 41 hours with KUSs (20 μM each, n = 3). (d) WST values of HEK293 cells, cultured under serum-free conditions for 65 hours with DMSO (control) or KUSs (20 μM each, n = 3). *** P < 0.001, vs. DMSO control (Dunnett's test). (e) WST values of HeLa cells, cultured in low glucose (0.2 g/l) medium with different concentrations of KUS121 (5, 10, 20, and 50 μM, n = 3) for 41 hours. ** P = 0.008, *** P < 0.001, vs. DMSO control (Dunnett's test). […]
Figure 4 KUSs and ATP each prevented a decrease of ATP levels and ameliorated ER stress in tunicamycin-treated cells. […] Normally growing HeLa cells were also analyzed (Control). […] Then, ATP amounts from 1.5 × 10^5 cells were measured. * P < 0.05, ** P < 0.01. […]

In the case of `Nc1ccc2cc(S(=O)(=O)O)ccc2c1/N=N/c1ccccc1` [KUS11], the IC50 (recombinant VCP) is reported as greater than 100000 nM, the “inhibition of total ATPase activity in clarified lysates” value [1] is reported as “did not show any significant inhibition” and the “decrease of ATP levels in tunicamycin-treated cells” value (HeLa cells [2]) is reported as “unable to prevent the tunicamycin-elicited ATP decrease”.

`Nc1c(/N=N/c2ccc(-c3ccccc3)nc2)cc(S(=O)(=O)O)c2ccccc12` [KUS31] was tested, and the IC50 (recombinant VCP) was 229 nM, the “induction of cell death” value (HeLa cells [3]) was “did not induce any of these phenotypes” and the “induction of accumulation of ubiquitinated proteins, ER stress (CHOP), autophagy (LC3)” value (“induction of accumulation … (LC3)” for short) (cellular VCP functions) was “did not induce any of these phenotypes”. For the same molecule, the apparent cellular toxicity [4] was “did not manifest any apparent cellular toxicity”.

`Nc1c(/N=N/c2ccc(-c3ccccc3-c3ccccc3)nc2)cc(S(=O)(=O)O)c2ccccc12` [KUS69] was tested, and the IC50 (recombinant VCP) was 116 nM, the “aggregation of laminin γ1” value (HeLa cells [5]; 50 μM KUS) was “clearly prevented the aggregation of laminin γ1” and the “induction of cell death” value (HeLa cells [3]) was “did not induce any of these phenotypes”. For the same molecule, the “induction of accumulation … (LC3)” value (cellular VCP functions) was “did not induce any of these phenotypes” and the apparent cellular toxicity [4] was “did not manifest any apparent cellular toxicity”.

For `Nc1c(/N=N/c2ccc(-c3cccc4c3sc3ccccc34)nc2)cc(S(=O)(=O)O)c2ccccc12` [KUS94], the IC50 (recombinant VCP) was 1000 nM, the “aggregation of laminin γ1” value (HeLa cells [5]; 50 μM KUS) was “clearly prevented the aggregation of laminin γ1” and the “induction of cell death” value (HeLa cells [3]) was “did not induce any of these phenotypes”. For the same molecule, the “induction of accumulation … (LC3)” value (cellular VCP functions) was “did not induce any of these phenotypes”, the apparent cellular toxicity [4] was “did not manifest any apparent cellular toxicity” and the “lowering of total ATPase activity” value ([1]; 1 μM compound) was “approximately 20%”.

With `CCCCOc1c(C=O)cc(C)cc1-c1ccc(/N=N/c2cc(S(=O)(=O)O)c3ccccc3c2N)cn1` [KUS187] the IC50 (recombinant VCP) was 200 to 300 nM and 186 nM, the “aggregation of laminin γ1” value (HeLa cells [5]; 50 μM KUS) was “clearly prevented the aggregation of laminin γ1” and the “induction of cell death” value (HeLa cells [3]) was “did not induce any of these phenotypes”. The “induction of accumulation … (LC3)” value (cellular VCP functions) was “did not induce any of these phenotypes”, the apparent cellular toxicity [4] was “did not manifest any apparent cellular toxicity” and the “lowering of total ATPase activity” value ([1]; 100 nM compound) was “approximately 20%”. The “lowering of total ATPase activity” value ([1]; 1 μM compound) was roughly 40%, the “outer segment morphology by electron microscopy” value (rd10 mice) was “well preserved” and the “mean amplitude of the a-wave, dark-adapted electroretinogram” value (rd10 mice; 50 mg/kg daily i.p. from day 7, vs control) was “larger than that in control rd10 mice”.

In the case of `COC(=O)C(C)=O` [methylpyruvate], the “induction of ER stress (CHOP induction)” value [6] is reported as “dampen the induction of ER stress” and the “aggregation of laminin γ1” value (HeLa cells [5]; 3 to 10 mM methylpyruvate) is reported as “ineffective in preventing the aggregation of laminin γ1”.
